Results as given in ChEMBL document CHEMBL4229359, “Simple 2(5H)-furanone derivatives with selective cytotoxicity towards non-small cell lung cancer cell line A549 - Synthesis, structure-activity relationship and biological evaluation” (Eur J Med Chem, 2018).
Activity calls are given as the source filed them. The calls are words filed in the database; no cut-off is given here.

What was measured:
A549 [1] = test: Cytotoxicity against human A549 cells assessed as reduction in cell viability after 72 hrs by MTT assay; assay type: functional, cell-based; settings: A549, 72 h
BEAS-2B = test: Cytotoxicity against human BEAS2B cells assessed as reduction in cell viability after 72 hrs by MTT assay; assay type: cell-based
[2] = Selectivity index, ratio of IC50 for human BEAS2B cells to IC50 for human A549 cells; assay type: toxicity
HCT-116 [3] = test: Cytotoxicity against human HCT116 cells assessed as reduction in cell viability after 72 hrs by MTT assay; assay type: functional, cell-based; settings: HCT-116, 72 h
HCT-116 [4] = test: Cytotoxicity against p53-/- human HCT116 cells assessed as reduction in cell viability after 72 hrs by MTT assay; assay type: functional, cell-based; settings: HCT-116, 72 h
HT-29 = test: Cytotoxicity against human HT-29 cells assessed as reduction in cell viability after 72 hrs by MTT assay; assay type: functional, cell-based; settings: HT-29, 72 h
LoVo = test: Cytotoxicity against human LoVo cells assessed as reduction in cell viability after 72 hrs by MTT assay; assay type: functional, cell-based
Hep 3B2 = test: Cytotoxicity against human Hep3B cells assessed as reduction in cell viability after 72 hrs by MTT assay; assay type: functional, cell-based
HepG2 = test: Cytotoxicity against human HepG2 cells assessed as reduction in cell viability after 72 hrs by MTT assay; assay type: functional, cell-based; settings: HepG2, 72 h
U2OS = test: Cytotoxicity against human U2OS cells assessed as reduction in cell viability after 72 hrs by MTT assay; assay type: functional, cell-based
SJSA-1 = test: Cytotoxicity against human SJSA1 cells assessed as reduction in cell viability after 72 hrs by MTT assay; assay type: functional, cell-based; settings: SJSA-1, 72 h
MCF7 = test: Cytotoxicity against human MCF7 cells assessed as reduction in cell viability after 72 hrs by MTT assay; assay type: functional, cell-based; settings: MCF7, 72 h
PC-3 = test: Cytotoxicity against human PC3 cells assessed as reduction in cell viability after 72 hrs by MTT assay; assay type: functional, cell-based; settings: PC-3, 72 h
DU-145 = test: Cytotoxicity against human DU145 cells assessed as reduction in cell viability after 72 hrs by MTT assay; assay type: functional, cell-based; settings: DU-145, 72 h
A549 [5] = test: Cell cycle arrest in human A549 cells assessed as accumulation at G1-phase at 10 uM after 24 hrs by propidium iodide staining based flow cytometry (reference value: 59.4%); assay type: functional
A549 [6] = test: Cell cycle arrest in human A549 cells assessed as accumulation at S-phase at 10 uM after 24 hrs by propidium iodide staining based flow cytometry (reference value: 34.1%); assay type: functional
A549 [7] = test: Cell cycle arrest in human A549 cells assessed as accumulation at G2/M-phase at 10 uM after 24 hrs by propidium iodide staining based flow cytometry (reference value: 6.5%); assay type: functional
A549 [8] = test: Cell cycle arrest in human A549 cells assessed as accumulation at G1-phase at 10 uM after 72 hrs by propidium iodide staining based flow cytometry (reference value: 75.2 to 76%); assay type: functional
A549 [9] = test: Cell cycle arrest in human A549 cells assessed as accumulation at S-phase at 10 uM after 72 hrs by propidium iodide staining based flow cytometry (reference value: 16.8 to 18.5%); assay type: functional
A549 [10] = test: Cell cycle arrest in human A549 cells assessed as accumulation at G2/M-phase at 10 uM after 72 hrs by propidium iodide staining based flow cytometry (reference value: 6.3 to 7.2%); assay type: functional
A549 [11] = test: Downregulation of Cyclin-B1 protein expression in human A549 cells at 10 uM after 72 hrs by Western blot analysis; assay type: functional, cell-based
A549 [12] = test: Cell cycle arrest in human A549 cells assessed as accumulation at G1-phase at 20 uM after 72 hrs by propidium iodide staining based flow cytometry (reference value: 61.5%); assay type: functional
A549 [13] = test: Cell cycle arrest in human A549 cells assessed as accumulation at S-phase at 20 uM after 72 hrs by propidium iodide staining based flow cytometry (reference value: 31.9%); assay type: functional
A549 [14] = test: Cell cycle arrest in human A549 cells assessed as accumulation at G2/M-phase at 20 uM after 72 hrs by propidium iodide staining based flow cytometry (reference value: 6.7%); assay type: functional
A549 [15] = test: Induction of apoptosis in human A549 cells assessed as live cells at 20 uM after 72 hrs by Annexin V-FITC/propidium iodide staining based flow cytometry (reference value: 98.5%); assay type: functional
A549 [16] = test: Induction of apoptosis in human A549 cells assessed as early apoptotic cells at 20 uM after 72 hrs by Annexin V-FITC/propidium iodide staining based flow cytometry (reference value: 0.4%); assay type: functional
A549 [17] = test: Induction of apoptosis in human A549 cells assessed as late apoptotic cells at 20 uM after 72 hrs by Annexin V-FITC/propidium iodide staining based flow cytometry (reference value: 0.5%); assay type: functional
A549 [18] = test: Induction of apoptosis in human A549 cells assessed as necrotic cells at 20 uM after 72 hrs by Annexin V-FITC/propidium iodide staining based flow cytometry (reference value: 0.6%); assay type: functional
A549 [19] = test: Induction of apoptosis in human A549 cells at 20 uM after 72 hrs by Annexin V-FITC/propidium iodide staining based flow cytometry relative to control; assay type: functional
A549 [20] = test: Effect on Bad protein expression in human A549 cells at 20 uM after 72 hrs by densitometric analysis; assay type: functional, cell-based
A549 [21] = test: Effect on Bax protein expression in human A549 cells at 20 uM after 72 hrs by densitometric analysis; assay type: functional, cell-based
A549 [22] = test: Effect on Bcl2 protein expression in human A549 cells at 20 uM after 72 hrs by densitometric analysis; assay type: functional, cell-based
A549 [23] = test: Effect on Bcl-x protein expression in human A549 cells at 20 uM after 72 hrs by densitometric analysis; assay type: functional, cell-based
A549 [24] = test: Effect on Pro-caspase-3 protein expression in human A549 cells at 20 uM after 72 hrs by densitometric analysis; assay type: functional, cell-based
A549 [25] = test: Effect on cleaved caspase-3 protein expression in human A549 cells at 20 uM after 72 hrs by densitometric analysis; assay type: functional, cell-based
A549 [26] = test: Induction of apoptosis in human A549 cells assessed as caspase-3 cleavage at 20 uM after 72 hrs by Western blot analysis; assay type: functional, cell-based
A549 [27] = test: Induction of mitosis in human A549 cells at 10 uM after 24 hrs by DAPI staining based fluorescence microscopic method; assay type: functional, cell-based
A549 [28] = test: Anticlonogenic activity against human A549 cells assessed as colony formation at 5 uM after 72 hrs by crystal violet staining based microscopic method relative to control; assay type: functional
A549 [29] = test: Anticlonogenic activity against human A549 cells assessed as colony formation at 10 uM after 72 hrs by crystal violet staining based microscopic method relative to control; assay type: functional
A549 [30] = test: Synergistic cytotoxicity against human A549 cells assessed as reduction in cell viability at 10 uM after 72 hrs in presence of 5 to 20 uM erlotinib by MTT assay; assay type: functional, cell-based
A549 [31] = test: Synergistic anticlonogenic activity against human A549 cells at 10 uM after 72 hrs in presence of 10 uM erlotinib by crystal violet staining based microscopic method; assay type: functional
A549 [32] = test: Anticlonogenic activity against human A549 cells at 10 uM after 72 hrs by crystal violet staining based microscopic method relative to control; assay type: functional
A549 [33] = test: Synergistic cell cycle arrest in human A549 cells assessed as accumulation at G1-phase at 10 uM after 72 hrs in presence of 10 uM erlotinib by propidium iodide staining based flow cytometry (reference value: 76%); assay type: functional
A549 [34] = test: Synergistic cell cycle arrest in human A549 cells assessed as accumulation at S-phase at 10 uM after 72 hrs in presence of 10 uM erlotinib by propidium iodide staining based flow cytometry (reference value: 16.8%); assay type: functional
A549 [35] = test: Synergistic cell cycle arrest in human A549 cells assessed as accumulation at G2/M-phase at 10 uM after 72 hrs in presence of 10 uM erlotinib by propidium iodide staining based flow cytometry (reference value: 7.2%); assay type: functional

CC(C)OC1OC(=O)C(Cl)=C1Cl (stereo not given)
IC50 (A549 [1]): 6.7 µM
IC50 (BEAS-2B): 27.5 µM
log(RatioIC50) [2]: 0.61
IC50 (HCT-116 [3]): 7.2 µM
IC50 (HCT-116 [4]): 6.8 µM
IC50 (HT-29): 7.2 µM
IC50 (LoVo): 2.8 µM
IC50 (Hep 3B2): 19.8 µM
IC50 (HepG2): 16.8 µM
IC50 (U2OS): 21.1 µM
IC50 (SJSA-1): 7.7 µM
IC50 (MCF7): 12.4 µM
IC50 (PC-3): 4.8 µM
IC50 (DU-145): 25.4 µM
Activity (A549 [5]): 40%
Activity (A549 [6]): 36.6%
Activity (A549 [7]): 23.4%
Activity (A549 [8]): 59.9 - 68.2%
Activity (A549 [9]): 19.3 - 26.2%
Activity (A549 [10]): 12.5 - 13.9%
Activity (A549 [11]): Active
Activity (A549 [12]): 48%
Activity (A549 [13]): 47.3%
Activity (A549 [14]): 4.7%
Activity (A549 [15]): 63.9%
Activity (A549 [16]): 6.5%
Activity (A549 [17]): 25.7%
Activity (A549 [18]): 3.9%
fold change (FC) (A549 [19]): 36
Activity (A549 [20]): inactive
Activity (A549 [21]): inactive
Activity (A549 [22]): inactive
Activity (A549 [23]): inactive
Activity (A549 [24]): inactive
Activity (A549 [25]): inactive
Activity (A549 [26]): inactive
Activity (A549 [27]): inactive
Activity (A549 [28]): 40%
Activity (A549 [29]): 15%
Activity (A549 [30]): inactive
Activity (A549 [31]): 89%
Activity (A549 [32]): 86%
Activity (A549 [33]): 51.4%
Activity (A549 [34]): 31.9%
Activity (A549 [35]): 16.6%
